tested on: immunoglobulin light chain protein WIL-FL T46L; assay: Differential Scanning Fluorimetry (thermal shift) assay; type: binding; details: recombinant amyloidogenic full length light chain WIL-FL T46L; protein and compound incubated at RT for 30 min before dye
Experimental: Differential Scanning Fluorimetry Assay
The stabilization effects the compounds have on the immunoglobulin light chain protein was quantitively measured using a thermal shift assay. Recombinant amyloidogenic full length light chain protein WIL-FL T46L was produced in E. coli, purified, and used in the assay. The Thermal Shift Protein Stability Kit from Biotium was used and the assay was done in 96-well Plates following the manufacturer's instructions. The protein and compounds were incubated at RT for 30 min before adding the dye and subjected to the thermal shift assay. The thermal stability (Tm) of each sample was then determined using standard curve fitting methods and compared to vehicle. Data are expressed as temperature shift: [Tm]compound−[Tm]vehicle.
The compounds provided herein induce shifts in the ranges below: • 0-0.5° C.═* • >0.5-1° C.═** • >1-1.5° C.═*** • >1.5-2.5° C.═**** • >2.5° C.═*****

Row | Compound | DSF temperature shift: [Tm]compound−[Tm]vehicle
1 | CC[C@@]1(c2ccccc2)CCN(c2cc(C)n(CCN3CC4(CCN(c5nccn6cnnc56)CC4)NC3=O)c(=O)c2)C1 [Compound 1, (S)-8-([1,2,4]triazolo[4,3-a]pyrazin-8-yl)-3-(2-(4-(3-ethyl-3-phenylpyrrolidin-1-yl)-6-methyl-2-oxopyridin-1(2H)-yl)ethyl)-1,3,8-triazaspiro[4.5]decan-2-one] | ***** (>2.5° C.═*****)
2 | Cc1cc(N2CC[C@@](C)(c3ccccc3)C2)cc(=O)n1CCN1CC2(CCN(c3ncnc4[nH]ncc34)CC2)NC1=O [Compound 9] | **** (>1.5-2.5° C.═****)
3 | Cc1cc(N2CC[C@@](C)(c3ccccc3)C2)cc(=O)n1CCCN1CC2(CCN(c3nccn4ccnc34)CC2)NC1=O [Compound 10] | **** (>1.5-2.5° C.═****)
4 | Cc1cc(N2CCC(C)(c3ccccc3)C2)cc(=O)n1CCN1CC2(CCN(c3ncccn3)C2)NC1=O (stereo not shown) [Compound 11, 3-(2-(6-methyl-4-(3-methyl-3-phenylpyrrolidin-1-yl)-2-oxopyridin-1(2H)-yl)ethyl)-7-(pyrimidin-2-yl)-1,3,7-triazaspiro[4.4]nonan-2-one] | *** (>1-1.5° C.═***)
5 | Cc1cc(N2CC[C@](C)(c3ccccc3)C2)cc(=O)n1CCN1CC2(CCN(c3nccn4ccnc34)CC2)NC1=O [Compound 12] | *** (>1-1.5° C.═***)
6 | Cc1cc(N2CC[C@@](C)(c3ccccc3)C2)cc(=O)n1CCCN1CC2(CCN(c3nccn4ccnc34)CC2)NC1=O [Compound 13] | ** (>0.5-1° C.═**)
7 | CCOC(=O)c1ccc(N2CCC3(CC2)CN(CCn2c(C)cc(N4CC[C@](CC)(c5ccccc5)C4)cc2=O)C(=O)N3)cn1 [Compound 14] | ***** (>2.5° C.═*****)
8 | CC[C@@]1(c2ccccc2)CCN(c2cc(C)n(CCN3CC4(CCN(c5cn6ccnc6cn5)CC4)NC3=O)c(=O)c2)C1 [Compound 15] | **** (>1.5-2.5° C.═****)
9 | CC[C@@]1(c2ccccc2)CCN(c2cc(C)n(CCN3CC4(CCN(c5ccc6nncn6c5)CC4)NC3=O)c(=O)c2)C1 [Compound 16] | **** (>1.5-2.5° C.═****)
10 | CC[C@]1(c2ccccc2)CCN(c2cc(C)n(CCN3CC4(CCN(c5ccc(C(=O)O)nn5)CC4)NC3=O)c(=O)c2)C1 [Compound 17] | ***** (>2.5° C.═*****)
11 | CC[C@]1(c2ccccc2)CCN(c2cc(C)n(CCN3CC4(CCN(c5ccc(C(=O)OC)nn5)CC4)NC3=O)c(=O)c2)C1 [Compound 18] | ***** (>2.5° C.═*****)
12 | CC[C@]1(c2ccccc2)CCN(c2cc(C)n(CCN3CC4(CCN(c5ccc(C(=O)O)nc5)CC4)NC3=O)c(=O)c2)C1 [Compound 19] | ** (>0.5-1° C.═**)
13 | CC[C@]1(c2ccccc2)CCN(c2cc(C)n(CCN3CC4(CCN(c5cccc(C(=O)O)n5)CC4)NC3=O)c(=O)c2)C1 [Compound 20] | **** (>1.5-2.5° C.═****)
14 | CC[C@]1(c2ccccc2)CCN(c2cc(C)n(CCN3CC4(CCN(c5cccc(C(=O)OC)n5)CC4)NC3=O)c(=O)c2)C1 [Compound 21] | **** (>1.5-2.5° C.═****)
15 | CC[C@]1(c2ccccc2)CCN(c2cc(C)n(CCN3CC4(CCN(c5nccn6cnnc56)CC4)NC3=O)c(=O)c2)C1 [Compound 22] | *** (>1-1.5° C.═***)
16 | Cc1nc(N2CC[C@](C)(c3ccccc3)C2)cc(=O)n1CCN1CC2(CCN(c3nccn4ccnc34)CC2)NC1=O [Compound 24] | *** (>1-1.5° C.═***)
17 | Cc1cc(N2CC[C@@](C)(c3ccccc3)C2)cc(=O)n1CCCN1C(=O)NC2(CCN(c3nccn4ccnc34)CC2)C1=O [Compound 27] | **** (>1.5-2.5° C.═****)
18 | Cc1cc(N2CCC(C)(c3ccccc3)C2)cc(=O)n1CCCN1C(=O)NC2(CCN(c3ncccn3)CC2)C1=O (stereo not shown) [Compound 28, 3-(3-(6-methyl-4-(3-methyl-3-phenylpyrrolidin-1-yl)-2-oxopyridin-1(2H)-yl)propyl)-8-(pyrimidin-2-yl)-1,3,8-triazaspiro[4.5]decane-2,4-dione] | **** (>1.5-2.5° C.═****)
19 | Cc1cc(N2CCC(C)(c3ccccc3)C2)cc(=O)n1CCCN1C(=O)NC2(CCN(c3nccn4ccnc34)CC2)C1=O (stereo not shown) [Compound 29] | **** (>1.5-2.5° C.═****)
20 | Cc1cc(N2CCC(C)(c3ccccc3)C2)cc(=O)n1CCN1C(=O)NC2(CCN(c3ncccn3)CC2)C1=O (stereo not shown) [Compound 30] | **** (>1.5-2.5° C.═****)
21 | Cc1cc(N2CC[C@@](C)(c3ccccc3)C2)cc(=O)n1CCN1C(=O)NC2(CCN(c3nccn4cncc34)CC2)C1=O [Compound 31] | *** (>1-1.5° C.═***)
22 | Cc1cc(O[C@H](C)c2ccccc2)cc(=O)n1CCN1C(=O)NC2(CCN(c3nccn4ccnc34)CC2)C1=O [Compound 32, (R)-8-(imidazo[1,2-a]pyrazin-8-yl)-3-(2-(6-methyl-2-oxo-4-(1-phenylethoxy)pyridin-1(2H)-yl)ethyl)-1,3,8-triazaspiro[4.5]decane-2,4-dione] | ** (>0.5-1° C.═**)
23 | Cc1cc(N2CCC(C)(c3ccccc3)C2)cc(=O)n1CCN1C(=O)NC2(CCN(c3ncccn3)C2)C1=O (stereo not shown) [Compound 33] | *** (>1-1.5° C.═***)
24 | Cc1cc(N2CCC(C)(c3ccccc3)C2=O)cc(=O)n1CCN1C(=O)NC2(CCN(c3ncccn3)C2)C1=O (stereo not shown) [Compound 34, 3-(2-(6-methyl-4-(3-methyl-2-oxo-3-phenylpyrrolidin-1-yl)-2-oxopyridin-1(2H)-yl)ethyl)-7-(pyrimidin-2-yl)-1,3,7-triazaspiro[4.4]nonane-2,4-dione] | * (0-0.5° C.═*)
25 | Cc1cc(N2CC[C@](C)(c3ccccc3)C2)cc(=O)n1CCCN1C(=O)NC2(CCN(c3nccn4ccnc34)CC2)C1=O [Compound 35] | *** (>1-1.5° C.═***)
